Series [1] in a line: Metabolic stability in human liver microsomes (Human MST). The format is in vitro ADME. The following applies: pH 7.6, pooled human liver microsomes, 37° C., read-out: Human MST t½. As to the method: Assessment of Metabolic Stability in Human Liver Microsomes (Human MST) The metabolic stability of the compounds according to the invention may be investigated as follows: The metabolic degradation of the test compound is assayed at 37° C. with pooled human liver microsomes. The final incubation volume of 100 μL per time point contains TRIS buffer pH 7.6 at room temperature (0.1 M), MgCl2 (5 mM), microsomal protein (1 mg/mL) and the test compound at a final concentration of 1 μM. Following a short pre-incubation period at 37° C., the reactions are initiated by addition of beta-nicotinamide adenine dinucleotide phosphate, reduced form (NADPH, 1 mM), and terminated by transferring an aliquot into solvent after different time points. After centrifugation (10000 g, 5 min), an aliquot of the supernatant is assayed by LCMS/MS for the amount of parent compound. The half-life (t1/2) is determined by the slope of the semi-logarithmic plot of the concentration-time profile.
For orientation: Liver microsomes are vesicles of endoplasmic reticulum, rich in cytochrome P450 enzymes.

The target of series [2] is T1, human GABAA α5β3γ2s receptor (Homo sapiens, UniProt P18507+P31644).
T1 sequence (P18507 1-475): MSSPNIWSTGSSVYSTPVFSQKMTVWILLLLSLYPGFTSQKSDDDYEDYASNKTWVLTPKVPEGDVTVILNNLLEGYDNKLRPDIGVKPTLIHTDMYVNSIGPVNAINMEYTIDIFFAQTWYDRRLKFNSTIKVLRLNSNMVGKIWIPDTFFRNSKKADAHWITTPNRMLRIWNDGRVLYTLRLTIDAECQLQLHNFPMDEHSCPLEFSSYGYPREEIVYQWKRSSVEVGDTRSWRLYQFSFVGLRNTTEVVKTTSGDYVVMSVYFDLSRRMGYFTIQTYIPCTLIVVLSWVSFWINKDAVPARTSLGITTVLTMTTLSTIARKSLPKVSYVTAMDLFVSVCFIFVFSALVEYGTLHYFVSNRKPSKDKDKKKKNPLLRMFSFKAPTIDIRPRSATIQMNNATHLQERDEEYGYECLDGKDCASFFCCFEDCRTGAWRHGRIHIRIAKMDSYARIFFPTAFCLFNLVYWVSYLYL
T1 sequence (P31644 1-462): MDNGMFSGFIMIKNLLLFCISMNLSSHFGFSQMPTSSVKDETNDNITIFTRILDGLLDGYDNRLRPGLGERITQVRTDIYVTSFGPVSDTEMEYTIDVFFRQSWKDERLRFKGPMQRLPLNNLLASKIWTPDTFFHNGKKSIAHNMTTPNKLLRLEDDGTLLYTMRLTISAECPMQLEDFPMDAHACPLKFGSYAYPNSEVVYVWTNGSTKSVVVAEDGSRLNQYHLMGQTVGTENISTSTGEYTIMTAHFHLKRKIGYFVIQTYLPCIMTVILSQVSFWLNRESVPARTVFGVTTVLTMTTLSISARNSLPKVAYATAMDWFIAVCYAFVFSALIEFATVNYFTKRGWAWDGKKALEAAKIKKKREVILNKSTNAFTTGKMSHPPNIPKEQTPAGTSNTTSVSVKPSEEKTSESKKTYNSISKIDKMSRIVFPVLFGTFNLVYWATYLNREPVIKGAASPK
Kind of series: Assay A: in vitro inhibition of 3H-flumazenil binding, HEK cells expressing the human GABAA α5β3γ2s receptor. As for the experimental part: Cell Cultures and Membrane Preparation
HEK-293 cell lines with stable expression of recombinant human GABAA α5ß3 γ2s receptors (plasmid H46/E9/B10) are seeded in T175 polystyrene flasks or roller bottles (1700 cm^2, Fisher Scientific CCI-431191), and cultured (37° C., 5% CO2) in Dulbecco's Modified Eagle Medium (DMEM) with GlutaMAX™ supplemented with 10% fetal bovine serum and one or both of the following antibiotics: hygromycin B ([…]; γ2 subunit) or G418 (0.5 mg/ml; […]).
When the cultures reach confluency, the DMEM is removed and the cells are washed (10 ml for T175 flasks; 50 ml for roller bottles) once in Dulbecco's Phosphate Buffered Saline (DPBS). Following addition of DPBS to the cultures (10 ml for T175 flasks; 100 ml for roller bottles) for approximately 5 min cells are easily detached from the surface by shaking or tapping the flask gently. The cell suspension is transferred to Falcon tubes and centrifuged at 23,500×g for 10 min at 2° C. The pellet is washed once in 15 ml Tris-citrate buffer (50 mM, pH 7.1) using an Ultra-Turrax homogenizer and centrifuged at 2° C. for 10 min at 27,000×g. The washed pellet is re-suspended in 15 ml Tris-citrate buffer and frozen at −80° C. until the day of the binding experiment.
On the day of the experiment the cell membrane preparation is thawed and centrifuged at 2° C. for 10 min at 27,000×g. The pellet is re-suspended, using an Ultra-Turrax homogenizer in Tris-citrate buffer, to 15-50 µg protein per assay and then used for binding assays.
Non-specific binding is determined using clonazepam ([…]).
All dilutions of test compounds and incubation of assay are performed in glass vials/96-vial plates. […] Compounds are dissolved in 100% DMSO (10 mM stock), diluted in 48% ethanol-water, and tested in triplicate in serial 1:3 or 1:10 dilutions. When screening large numbers of compounds only one concentration of each compound is tested in single wells. Reference compounds are not included routinely, but for each experiment performed total and nonspecific binding is compared to data obtained during validation of the assay.
Binding is either terminated by rapid filtration onto
1) Whatman GF/C glass fibre filters using a Brandel Cell harvester, followed by 5 washes with 1 ml ice-cold buffer or onto 2) UniFilter GF/C glass fibre filter plates using a Tomtec cell harvester, followed by washing with approximately 5 ml ice-cold buffer.
The amount of radioactivity on the filters is determined by conventional liquid scintillation counting using a
1) Tri-Garb™ counter (PerkinElmer Life and Analytical Sciences) for separate large filters or
2) Topcount™ counter (PerkinElmer Life and Analytical Sciences) for 96-well filter plates.
Specific binding is total binding minus non-specific binding.
The IC50 value for a test compound is determined based on the equation: […]
where B is the binding in percentage of total specific binding; C is the concentration of test compound; and n is the Hill coefficient. For screening purposes n is set to 1. The IC50 value is calculated from the concentration response curves by the non-linear regression method using the curve-fitting program GraphPad Prism.
The Ki value for a test compound can be calculated from the IC50 value using the equation by Cheng and Prusoff: […]

[3] abbreviates: read-out: Assay A: GABAA α 5 β 3 γ 2s Ki.
The mark [4] stands for this setting: compounds of the present invention, read-out: Assay A: GABAA α5 β3 γ2S Ki.

Each structure is given as a SMILES string. Like-named read-outs stand apart in the source and are kept apart here.

As usually defined, the Ki is the dissociation constant of the complex between target and ligand, obtained from inhibition or displacement. As to `Cc1nnn(-c2ccc(C(F)F)cn2)c1COc1ccc(-c2ccc(=O)n(C)c2)nn1` [Example 1, 5-[6-({1-[5-(difluoromethyl)pyridin-2-yl]-4-methyl-1H-1,2,3-triazol-5-yl}methoxy)pyridazin-3-yl]-1-methyl-1,2-dihydropyridin-2-one], the half-life at 1 μM in series [1] was more than 2.17 h. Also, the Ki in series [2] (setting [3]) amounted to 10 nM.
Take `Cc1nnn(-c2ccc(C(F)F)cn2)c1COc1ccc(-c2cnc(N)nc2)nn1` [Example 2]: in series [2] (setting [3]), the Ki is 15 nM.
With `Cc1cc(-c2ccc(OCc3c(C)nnn3-c3ccc(C(F)F)cn3)nn2)cnn1` [Example 3], the half-life at 1 μM in series [1] was more than 2.17 h. Moreover, the Ki in series [2] (setting [3]) was 13 nM.
The matching figures for `Cc1nnn(-c2ccc(C(F)F)cn2)c1COc1ccc(-c2cn[nH]c2)nn1` [Example 4]: 0.667 h and 17 nM.
On to `Cc1nnn(-c2ccc(C(F)F)cn2)c1COc1ccc(-c2cc[nH]n2)nn1` [Example 5], for which, in series [1], the half-life at 1 μM worked out at 1.38 h. The inhibitory constant (Ki) in series [2] (setting [4]) and in series [2] (setting [3]) was 16 nM in each case.
Take `Cc1nnn(-c2ccc(C(F)F)cn2)c1COc1ccc(-c2cccc(C(N)=O)c2)nn1` [Example 6]: in series [1], the half-life at 1 μM is 1.93 h. The Ki in series [2] (setting [3]) amounted to 15 nM.
Consider `Cc1nnn(-c2ccc(C(F)F)cn2)c1COc1ccc(-c2cnn(CC#N)c2)nn1` [Example 7], for which the half-life at 1 μM in series [1] was more than 2.17 h. Moreover, the inhibition constant Ki in series [2] (setting [3]) stood at 26 nM.
The matching figures for `Cc1nnn(-c2ccc(C(F)F)cn2)c1COc1ccc(-c2ccc(C#N)nc2)nn1` [Example 8]: more than 2.17 h and 18 nM.
`Cc1nnn(-c2ccc(C(F)F)cn2)c1COc1ccc(-c2ccc(C#N)s2)nn1` [Example 12]: in series [2] (setting [3]), the Ki is 19 nM.
As to `CNc1cccc(-c2ccc(OCc3c(C)nnn3-c3ccc(C(F)F)cn3)nn2)n1` [Example 14], in series [2] (setting [3]), the Ki came to 33 nM.
Still for that read-out and setting: the result for `Cc1n[nH]c(C)c1-c1ccc(OCc2c(C)nnn2-c2ccc(C(F)F)cn2)nn1` [Example 15] reads 40 nM; that for `Cc1nnn(-c2ccc(C(F)F)cn2)c1COc1ccc(-c2ccc(S(C)(=O)=O)nc2)nn1` [Example 16], 21 nM.
As to `Cc1nnn(-c2ccc(C(F)F)cn2)c1COc1ccc(-c2ccnnc2)nn1` [Example 17], the half-life at 1 μM in series [1] is more than 2.17 h. For the same compound, in series [2] (setting [3]), the Ki turned out to be 16 nM.
The matching figures for `Cc1ncc(-c2ccc(OCc3c(C)nnn3-c3ccc(C(F)F)cn3)nn2)o1` [Example 18]: more than 2.17 h and 14 nM.
As to `Cc1nnn(-c2ccc(C(F)F)cn2)c1COc1ccc(-c2ccc(N)nc2)nn1` [Example 19], the Ki in series [2] (setting [3]) worked out at 17 nM.
As to `Cc1nnn(-c2ccc(C(F)F)cn2)c1COc1ccc(-c2c[nH]c(=O)c(F)c2)nn1` [Example 20], the half-life at 1 μM in series [1] is more than 2.17 h. Besides, the inhibitory constant (Ki) in series [2] (setting [3]) was determined as 16 nM.
`CCn1cc(-c2ccc(OCc3c(-c4ccc(C(F)F)cn4)nnn3C)nn2)cn1` [Example 22]: the half-life at 1 μM in series [1] is more than 2.17 h. Also, the Ki in series [2] (setting [3]) is 19 nM.
Regarding `Cn1nnc(-c2ccc(C(F)F)cn2)c1COc1ccc(-c2ccc(S(C)(=O)=O)nc2)nn1` [Example 23], the half-life at 1 μM in series [1] is more than 2.17 h. Besides, in series [2] (setting [3]), the inhibition constant (Ki) stood at 49 nM.
As for `Cn1nnc(-c2ccc(C(F)F)cn2)c1COc1ccc(-c2cn[nH]c2)nn1` [Example 24], the half-life at 1 μM in series [1] was 1.03 h. For the same compound, the Ki in series [2] (setting [3]) was 32 nM.
In the case of `Cn1nnc(-c2ccc(C(F)F)cn2)c1COc1ccc(-c2ccc(N)nc2)nn1` [Example 25], in series [1], the half-life at 1 μM was more than 2.17 h. In addition, in series [2] (setting [3]), the Ki was found to be 23 nM.
The matching figures for `Cn1nnc(-c2ccc(C(F)F)cn2)c1COc1ccc(-c2cccc(C(N)=O)c2)nn1` [Example 28]: more than 2.17 h and 24 nM.
In the case of `Cc1c(-c2ccc(OCc3c(-c4ccc(C(F)F)cn4)nnn3C)nn2)cc(C#N)n1C` [Example 29], the half-life at 1 μM in series [1] came out at 1.62 h. For the same compound, the Ki in series [2] (setting [3]) is 19 nM.
The matching figures for `Cc1nn(C)cc1-c1ccc(OCc2c(-c3ccc(C(F)F)cn3)nnn2C)nn1` [Example 30]: more than 2.17 h and 24 nM.
Regarding `COc1ncc(-c2ccc(OCc3c(-c4ccc(C(F)F)cn4)nnn3C)nn2)cn1` [Example 31], the half-life at 1 μM in series [1] stood at 2.12 h. Also, in series [2] (setting [3]), the Ki was determined as 23 nM.
Regarding `Cn1nnc(-c2ccc(C(F)F)cn2)c1COc1ccc(-c2cnn(C3CCC3)c2)nn1` [Example 32], in series [1], the half-life at 1 μM came out at 1.3 h. Also, the Ki in series [2] (setting [3]) came to 18 nM.
For `Cc1c(-c2ccc(OCc3c(-c4ccc(C(F)F)cn4)nnn3C)nn2)cnn1C` [Example 33], the half-life at 1 μM in series [1] is 1.63 h. Moreover, the Ki in series [2] (setting [3]) came out at 24 nM.
Turning to `Cn1nnc(-c2ccc(C(F)F)cn2)c1COc1ccc(-c2cnc3nonc3c2)nn1` [Example 35], the half-life at 1 μM in series [1] was more than 2.17 h. The Ki in series [2] (setting [3]) worked out at 49 nM.
The matching figures for `Cc1nnn(-c2ccc(C(F)F)cn2)c1COc1ccc(-n2cc(C#N)cn2)nn1` [Example 37]: 2.15 h and 11 nM.
For `Cc1nnn(-c2ccc(C(F)F)cn2)c1COc1ccc(-n2ncnc2C)nn1` [Example 38], the Ki in series [2] (setting [3]) was 12 nM.
On to `Cn1nnc(-c2ccc(C(F)F)cn2)c1COc1ccc(-c2cnccn2)nn1` [Example 39], for which the half-life at 1 μM in series [1] is more than 2.17 h. Besides, the Ki in series [2] (setting [3]) came to 39 nM.
With `Cc1nnn(-c2ccc(C(F)F)cn2)c1COc1ccc(-n2cnc(C#N)c2)nn1` [Example 42, 1-[6-({1-[5-(difluoromethyl)pyridin-2-yl]-4-methyl-1H-1,2,3-triazol-5-yl}methoxy)pyridazin-3-yl]-1H-imidazole-4-carbonitrile], the Ki stood at 0.014 nM in series [2] (setting [4]) and 14 nM in series [2] (setting [3]).
`Cc1nnn(-c2ccc(C(F)F)cn2)c1COc1ccc(-n2nccn2)nn1` [Example 43]: the Ki in series [2] (setting [3]) was 28 nM.

Values taken from US20230286946A1, “DIFLUOROMETHYL-PYRIDIN-2-YL TRIAZOLES” (Boehringer Ingelheim International GmbH, priority 2020, published 2023).
